# Target: T1, MRE11 (Saccharomyces cerevisiae, UniProt P32829)
# T1 construct: made in house; host or cells: S. cerevisiae protease-deficient strain BJ5464
# T1 sequence (P32829 1-692): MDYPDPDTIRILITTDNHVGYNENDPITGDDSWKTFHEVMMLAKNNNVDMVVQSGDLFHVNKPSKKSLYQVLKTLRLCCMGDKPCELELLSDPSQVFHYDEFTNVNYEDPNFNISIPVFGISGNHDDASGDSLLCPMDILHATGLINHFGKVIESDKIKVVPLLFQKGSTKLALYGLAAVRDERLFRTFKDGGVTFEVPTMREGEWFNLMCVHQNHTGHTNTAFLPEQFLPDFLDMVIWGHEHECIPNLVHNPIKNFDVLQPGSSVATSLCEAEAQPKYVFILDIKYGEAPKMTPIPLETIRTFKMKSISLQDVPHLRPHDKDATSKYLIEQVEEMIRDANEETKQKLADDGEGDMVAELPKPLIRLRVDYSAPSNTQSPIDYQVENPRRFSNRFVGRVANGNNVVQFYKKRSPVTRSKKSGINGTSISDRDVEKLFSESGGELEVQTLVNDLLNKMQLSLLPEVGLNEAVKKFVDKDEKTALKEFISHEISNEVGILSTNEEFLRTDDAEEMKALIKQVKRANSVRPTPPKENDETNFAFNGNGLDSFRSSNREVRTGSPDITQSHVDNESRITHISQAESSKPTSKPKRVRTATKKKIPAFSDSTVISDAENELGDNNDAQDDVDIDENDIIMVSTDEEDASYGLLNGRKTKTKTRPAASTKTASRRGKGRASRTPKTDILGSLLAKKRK
# Assay: Nuclease inhibition assay, MRE11 (5′ flap fluorescent DNA substrate, gel readout)
# Assay type: biochemical, yeast
# Conditions: 5 nM enzyme, 5 nM 5′ flap substrate, 15 min at 30° C.
# Text: In vitro assays were used for the determination of compound's IC50 values for inhibition of individual nucleases, i.e., MUS81/EME1, FEN1, EXO1, and MRE11. To generate IC50 values, concentration of compound was plotted against relative nuclease activity (in %). The dose-response curves were generated from inhibition data, from 5 point serial dilutions of inhibitory compounds, each in triplicate and fitted to a standard sigmoid curve. IC50 values were derived by standard nonlinear regression analysis.
# All tested compounds were diluted in 100% DMSO (dimethylsulfoxide) to prepare working stocks with different concentrations. To keep the DMSO concentration constant in every reaction, always 0.5 μl of the compound stock was added to the reaction buffer. The reaction buffer differs depending on the enzyme tested. Also concentration of the compounds in the reaction depends on the particular enzyme, since the inhibitory effect of the compounds vary between the enzymes. Nevertheless, always doubling dilutions in the range 200-0.8 μM was used. The compound was added as the first component in the reaction buffer, followed by the enzyme addition. […]
# For this experiment we prepared short fluorescently labeled oligonucleotide-based DNA substrates with specific structures reflecting the biochemical activities of tested individual nucleases (Table 1). […] For visualization, each substrate was labeled by fluorescent dye (fluorescein), which can be detected in the gel using appropriate imaging system (FLA-9000, Fuji) with filters for particular wavelengths (excitation: 485 nm, emission: 535 nm).
# Nuclease assays were performed in reaction buffer specific for particular enzyme: MUS81/EME1 (50 mM Tris pH=7.5, 5 mM MgCl2, 1 mM DTT a 100 μg/ml BSA), MRE11 (30 mM Bis-Tris pH=7.0, 50 μg/ml BSA, 1 mM DTT a 250 μM MnCl2), EXO1 and FEN1 (50 mM Tris pH=7.5, 1 mM MgCl2, 1 mM DTT a 100 μg/ml BSA). […] Fluorescently labeled DNA was detected by FLA-9000 scanner (Fuji) and the result was evaluated using Multi-Gauge V3.2 software (Fuji). […]
row,SMILES,IC50 [µM]
1,Nc1c(-c2nc3ccccc3[nH]2)nnc2cc(-c3cccc4ccccc34)nn12 [Preparative Example 5K],< 50
2,Nc1c(-c2nc3ccccc3[nH]2)nnc2cc(-c3ccccc3)nn12 [Preparative Example 5C],> 50
3,CCc1nn2c(N)c(-c3nc4ccccc4[nH]3)nnc2c1-c1ccc(F)cc1 [Preparative Example 5A],> 50

# — US9969741B2, “Pyrazolotriazines as inhibitors of nucleases” (MASARYKOVA UNIVERZITA, priority 2014, dated 2018)
